In patent EP2975030B1, “DIHYDROPYRIDAZINE-3,5-DIONE DERIVATIVE” (Chugai Seiyaku Kabushiki Kaisha, priority 2013, dated 2014):

System: rat small-intestinal brush border membrane vesicles
Test: Inhibitory effect on 33PO4 uptake into rat small-intestinal brush border membrane vesicles (rapid filtration method)
Assay type: biochemical, Wistar female rat
Conditions: 1 µM test compound, 33PO4 uptake into rat small-intestinal BBMVs, 60 seconds
Summary of the method: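 33PO4 uptake into rat small-intestinal brush border membrane vesicles measured by rapid filtration. Reactions were stopped with ice-cold buffer (110 mM NaCl, 1 mM KH2PO4, 10 mM HEPES pH 7.5), filtered and washed. Vesicle-associated radioactivity was counted by liquid scintillation.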

Row | Compound | Rate of uptake inhibition (%) (1 µM) | Rate of uptake inhibition (%) (1 µM)
1 | C[C@]12CCCN1N(Cc1ccccc1F)C(=O)C(C(=O)Nc1ccc(C(F)(F)F)cc1-c1cc(C(F)(F)F)ncn1)=C2O [Example 207] | 73% | –
2 | (4aR)-1-[(3-Fluorophenyl)methyl]-4-hydroxy-4a-methyl-N-[5-methyl-2-(trifluoromethyl)furan-3-yl]-2-oxo-6,7-dihydro-5H-pyrrolo[1,2-b]pyridazine-3-carboxamide [Example 6] | 48% | –
3 | Cc1ccc(CN2C(=O)C(C(=O)Nc3ccc(C(F)(F)F)cc3-c3cc(C(F)(F)F)ncn3)=C(O)[C@@]3(C)CCCN23)cc1 [Example 187] | 80% | –
4 | CN1N(Cc2cccc(F)c2F)C(=O)C(C(=O)Nc2ccc(C(F)(F)F)cc2-c2ccc(S(=O)(=O)N(C)C)cc2)=C(O)C1(C)C [Example 308] | 63% | –
5 | C[C@]12CCCN1N(Cc1cccc(F)c1F)C(=O)C(C(=O)Nc1ccc(C(F)(F)F)cc1-c1cnc(Cl)c(C#N)c1)=C2O [Example 68, (4aR)-N-[2-(6-Chloro-5-cyanopyridin-3-yl)-4-(trifluoromethyl)phenyl]-1-[(2,3-difluorophenyl)methyl]-4-hydroxy-4a-methyl-2-oxo-6,7-dihydro-5H-pyrrolo[1,2-b]pyridazine-3-carboxamide] | 84% | –
6 | CN(CCO)CCOc1ccc(CN2C(=O)C(C(=O)Nc3ccc(C(F)(F)F)cc3-c3cc(C(F)(F)F)ncn3)=C(O)C3(CCC3)N2C)c(F)c1F [Example 347] | 28% | –
7 | CC(C)[C@@H]1C(O)=C(C(=O)Nc2ccc(Cl)cc2-c2cc(C(F)(F)F)ncn2)C(=O)N(Cc2cccc(F)c2F)N1C [Example 250] | 52% | –
8 | C[C@]12CCCN1N(Cc1c(F)cccc1Cl)C(=O)C(C(=O)Nc1ccc(C(F)(F)F)cc1-c1ccc(C(F)(F)F)nc1)=C2O [Example 204] | 87% | –
9 | C[C@]12CCCN1N(Cc1c(F)cc(OCCCCCCOC[C@H](O)CO)cc1F)C(=O)C(C(=O)Nc1ccc(C(F)(F)F)cc1-c1ccc(C(F)(F)F)nc1)=C2O [Example 155] | 77% | –
10 | COCCN(C)CCOCCOCCOCCOCCOc1ccc(CN2C(=O)C(C(=O)Nc3ccc(C(F)(F)F)cc3-c3cc(C(F)(F)F)ncn3)=C(O)C3(CCCC3)N2C)c(F)c1F [Example 432] | 11% | –
11 | COC(=O)CN(C)c1ncc(-c2cc(C(F)(F)F)ccc2NC(=O)C2=C(O)[C@@]3(C)CCCN3N(Cc3cccc(F)c3F)C2=O)cc1C#N [Example 112] | 43% | –
12 | C[C@]12CCCN1N(Cc1cccc([N+](=O)[O-])c1)C(=O)C(C(=O)Nc1ccc(Br)c(F)c1)=C2O [Example 27] | 76% | –
13 | CSc1ncc(-c2cc(C(F)(F)F)ccc2NC(=O)C2=C(O)[C@@]3(C)CCCN3N(Cc3ccc(OCCN4CCOCC4)c(F)c3F)C2=O)cn1 [Example 104] | 73% | –
14 | C[C@]12CCCN1N(Cc1ccc(Cl)cc1)C(=O)C(C(=O)Nc1ccc(C(F)(F)F)cc1-c1cc(C(F)(F)F)ncn1)=C2O [Example 182] | 86% | –
15 | (4aR)-1-[(2,3-Difluorophenyl)methyl]-4-hydroxy-N-[5-methyl-2-(trifluoromethyl)furan-3-yl]-2-oxo-4a-propyl-6,7-dihydro-5H-pyrrolo[1,2-b]pyridazine-3-carboxamide [Example 12] | 27% | –
16 | CN1N(Cc2ccc(OCCN3CCOCC3)c(F)c2F)C(=O)C(C(=O)Nc2ccc(C(F)(F)F)cc2-c2ncnc(C(F)(F)F)c2Cl)=C(O)C12CCC2 [Example 284] | 46% | –
17 | CN1N(Cc2ccc(OCCN[C@@H](CC(=O)O)C(=O)O)c(F)c2F)C(=O)C(C(=O)Nc2ccc(C(F)(F)F)cc2-c2cc(C(F)(F)F)ncn2)=C(O)C12CCCC2 [Example 381, (2S)-2-[2-[2,3-Difluoro-4-[[10-hydroxy-6-methyl-8-oxo-9-[[4-(trifluoromethyl)-2-[6-(-trifluoromethyl)pyrimidin-4-yl]phenyl]carbamoyl]-6,7-diazaspiro[4.5]dec-9-en-7-yl]methyl]phenoxy]ethylamino]butanedioate] | 28% | –
18 | C[C@]12CCCN1N(Cc1c(F)cccc1Cl)C(=O)C(C(=O)Nc1ccc(C(F)(F)F)cc1-c1cc(C(F)(F)F)ncn1)=C2O [Example 210] | 71% | –
19 | CN1N(Cc2ccc(OCCN3CCOCC3)c(F)c2F)C(=O)C(C(=O)Nc2ccc(Cl)cc2-c2cc(C(F)(F)F)ncn2)=C(O)C12CCCC2 [Example 286] | 50% | –

Row | Compound | Rate of uptake inhibition (%) (1 µM) | Rate of uptake inhibition (%) (1 µM)
20 | CCC12CCCCN1N(Cc1cccc(F)c1F)C(=O)C(C(=O)Nc1cc(C)oc1C(F)(F)F)=C2O (centres unmarked) [Example 19, 1-[2,3-(Difluorophenyl)methyl]-4a-ethyl-4-hydroxy-N-[5-methyl-2-(trifluoromethyl)furan-3-yl]-2-oxo-5,6,7,8-tetrahydropyrido[1,2-b]pyridazine-3-carboxamide] | 41% | –
21 | C[C@]12CCCN1N(Cc1ccccc1Cl)C(=O)C(C(=O)Nc1ccc(C(F)(F)F)cc1-c1ccc(C(F)(F)F)nc1)=C2O [Example 168] | 72% | –
22 | 6-[[2,3-Difluoro-4-[1-(2-methoxyethyl)azetidin-3-yl]oxyphenyl]methyl]-9-hydroxy-5-methyl-7-oxo-N-[4-(trifluoromethyl)-2-[6-(trifluoromethyl)pyrimidin-4-yl]phenyl]-5,6-diazaspiro[3.5]non-8-ene-8-carboxamide [Example 413] | – | 34%
23 | CCN1[C@@H](C(C)(C)C)C(O)=C(C(=O)Nc2ccc(Cl)cc2-c2ccc(C(F)(F)F)nc2)C(=O)N1Cc1cccc(F)c1F [Example 245] | 40% | –
24 | C[C@]12CCCN1N(Cc1cccc(C#N)c1)C(=O)C(C(=O)Nc1ccc(C(F)(F)F)cc1-c1cc(C(F)(F)F)ncn1)=C2O [Example 179] | 83% | –
25 | Cc1c(-c2cc(C(F)(F)F)ccc2NC(=O)C2=C(O)C3(CCC3)N(C)N(Cc3ccc(OCCN4CCOCC4)c(F)c3F)C2=O)ncnc1C(F)(F)F [Example 285] | 62% | –
26 | C[C@]12CCCN1N(Cc1cccc(F)c1F)C(=O)C(C(=O)Nc1ccc(C(F)(F)F)cc1-c1ncnc(C#N)c1Cl)=C2O [Example 23] | 84% | –
27 | CN1N(Cc2ccc(OCCCCOC[C@H](O)CO)c(F)c2F)C(=O)C(C(=O)Nc2ccc(C(F)(F)F)cc2-c2cc(C(F)(F)F)ncn2)=C(O)C12CCC2 [Example 390] | 58% | –
28 | C[C@]12CCCN1N(Cc1cccc(F)c1F)C(=O)C(C(=O)Nc1ccc(C(F)(F)F)cc1-c1cc(C(F)(F)F)ncn1)=C2O [Example 21, (4aR)-1-[(2,3-Difluorophenyl)methyl]-4-hydroxy-4a-methyl-2-oxo-N-[4-(trifluoromethyl)-2-[6-(trifluoromethyl)pyrimidin-4-yl]phenyl]-6,7-dihydro-5H-pyrrolo[1,2-b]pyridazine-3-carboxamide] | 61% | –
29 | C[C@]12CCCN1N(Cc1ccc(F)c(F)c1)C(=O)C(C(=O)Nc1ccc(C(F)(F)F)cc1-c1cc(C(F)(F)F)ncn1)=C2O [Example 214] | 91% | –
30 | C[C@]12CCCN1N(Cc1ccc(C#CCOCCCCO)c(F)c1F)C(=O)C(C(=O)Nc1ccc(C(F)(F)F)cc1-c1ccc(C(F)(F)F)nc1)=C2O [Example 128] | 72% | –
31 | C[C@]12CCCN1N(Cc1ccc(OCCCCOC[C@H](O)CO)c(F)c1F)C(=O)C(C(=O)Nc1ccc(Cl)cc1-c1ccc(C(F)(F)F)nc1)=C2O [Example 121, (4aR)-N-[4-Chloro-2-[6-(trifluoromethyl)pyridin-3-yl]phenyl]-1-[[4-[4-[(2R)-2,3-dihydroxypropoxy]butoxy]-2,3-difluorophenyl]methy]-4-hydroxy-4a-methyl-2-oxo-6,7-dihydro-5H-pyrrolo[1,2-b]pyridazine-3-carboxamide] | 72% | –
32 | CSc1ccc(-c2nc(C(F)(F)F)ccc2NC(=O)C2=C(O)[C@@]3(C)CCCN3N(Cc3cccc(F)c3F)C2=O)cn1 [Example 105] | 72% | –
33 | CN(CCOCCC(=O)N(C)C[C@H](O)[C@@H](O)[C@H](O)[C@H](O)CO)CCOc1ccc(CN2C(=O)C(C(=O)Nc3ccc(C(F)(F)F)cc3-c3cc(C(F)(F)F)ncn3)=C(O)C3(CCCC3)N2C)c(F)c1F [Example 425] | 5% | –
34 | C[C@]12CCCN1N(Cc1cccc(F)c1F)C(=O)C(C(=O)Nc1ccc(C(F)(F)F)cc1-c1ncnc(Cl)c1Cl)=C2O [Example 70] | 79% | –
35 | C[C@]12CCCN1N(Cc1cccc(F)c1F)C(=O)C(C(=O)Nc1ccc(C(F)(F)F)cc1-c1cnc(C#N)c([N+](=O)[O-])c1)=C2O [Example 99, (4aR)-N-[2-(6-Cyano-5-nitropyridin-3-yl)-4-(trifluoromethyl)phenyl]-1-[(2,3-difluorophenyl)methyl]-4-hydroxy-4a-methyl-2-oxo-6,7-dihydro-5H-pyrrolo[1,2-b]pyridazine-3-carboxamide] | 82% | –
36 | C[C@]12CCCN1N(Cc1cc(F)ccc1F)C(=O)C(C(=O)Nc1cc(F)c(Br)c(F)c1)=C2O [Example 193] | 82% | –
37 | CC(CN1CCOCC1)Oc1ccc(CN2C(=O)C(C(=O)Nc3ccc(C(F)(F)F)cc3-c3cc(C(F)(F)F)ncn3)=C(O)C3(CCC3)N2C)c(F)c1F (centres unmarked) [Example 408] | 47% | –
38 | C[C@]12CCCN1N(Cc1ccccc1F)C(=O)C(C(=O)Nc1ccc(C(F)(F)F)cc1-c1ccc(C(F)(F)F)nc1)=C2O [Example 200] | 80% | –
